Usually Papp stands for the rate of passage across a membrane or cell layer, normalised by area and donor concentration. A lower Papp goes with slow passage.

Data on 13 compounds can be found in PMC9490236, “Accurate de novo design of membrane-traversing macrocycles” (Cell, 2022).

Where a SMILES comes first, the peptide text is derived from it. [ ]: non-standard residue; d: D form. NMeF = CN[C@@H](Cc1ccccc1)C(=O)O; dNMeF = CN[C@H](Cc1ccccc1)C(=O)O; NMeL = CN[C@@H](CC(C)C)C(=O)O; dNMeL = CN[C@H](CC(C)C)C(=O)O; NMeV = CN[C@H](C(=O)O)C(C)C; dNMeA = CN[C@H](C)C(=O)O

A short description of series [1]: in vitro. The following applies: PAMPA, PAMPA_Papp_Avg.
For series [2] the following is noted: PAMPA.

Regarding `CC[C@H](C)[C@@H]1NC(=O)[C@@H]2CCCN2C(=O)[C@H]2CCCN2C(=O)[C@@H](Cc2ccccc2)NC(=O)[C@@H](CC(C)C)N(C)C(=O)[C@H](C(C)C)NC(=O)[C@@H](CC(C)C)NC(=O)[C@@H]2CCCN2C(=O)[C@H]2CCCN2C(=O)[C@@H](C)N(C)C(=O)[C@H](C(C)C)N(C)C1=O` [Design D11.21, PRO ILE *VAL *DALA DPRO PRO DLEU VAL *DLEU DPHE DPRO] (cyclo(I[NMeV][dNMeA][dP]P[dL]V[dNMeL][dF][dP]P)), the apparent permeability (Papp) in series [1] came out at 0.24 ×10⁻⁶ cm/s. In series [2], this compound gave a PAMPA_R1 of 2.47E-07 and a PAMPA_R3 of 2.17E-07.

Take `CC(C)C[C@H]1NC(=O)[C@@H]2CCCN2C(=O)[C@@H]2CCCN2C(=O)[C@@H](C)NC(=O)[C@@H](Cc2ccccc2)NC(=O)[C@H]2CCCN2C1=O` [Design D6.3, DPRO DPHE DALA PRO PRO DLEU] (cyclo(PP[dL][dP][dF][dA])): the Papp in series [1] worked out at 1.99 ×10⁻⁶ cm/s. In series [2], this compound registered a PAMPA_R1 of 5.23e-06 cm/s and a PAMPA_R3 of 7.03e-07 cm/s.

In series [1], `CC[C@H](C)[C@@H]1NC(=O)[C@@H](CC(C)C)NC(=O)[C@@H]2CCCN2C(=O)[C@@H]2CCCN2C(=O)[C@@H](CC(C)C)NC(=O)[C@@H]2CCCN2C(=O)[C@H]2CCCN2C(=O)[C@@H](C(C)C)NC(=O)[C@@H](C)N(C)C1=O` [Design D9.14, PRO DLEU ILE *DALA DVAL DPRO PRO DLEU PRO] (cyclo([dL]PP[dL]I[dNMeA][dV][dP]P)) displayed a Papp of 0.584 ×10⁻⁶ cm/s. In series [2], the PAMPA_R1 is recorded as 6.02E-07 and the PAMPA_R3 amounted to 5.63E-07.

`CC[C@@H](C)[C@H]1NC(=O)[C@H](CC(C)C)N(C)C(=O)[C@H]2CCCN2C(=O)[C@@H](Cc2ccccc2)N(C)C(=O)[C@@H](Cc2ccccc2)N(C)C(=O)[C@H](CC(C)C)N(C)C(=O)[C@@H](C(C)C)NC(=O)[C@@H]2CCCN2C(=O)[C@H](C)NC1=O` [Design D9.9, PRO DVAL *LEU *DPHE *DPHE DPRO *LEU DILE ALA] (cyclo(AP[dV][NMeL][dNMeF][dNMeF][dP][NMeL][dI])) displayed a Papp in series [1] of 0.575 ×10⁻⁶ cm/s. In series [2], this compound returned a PAMPA_R1 of 7.88E-07 and a PAMPA_R3 of 2.31E-07.

`CC[C@H](C)[C@@H]1NC(=O)[C@H](CC(C)C)N(C)C(=O)[C@H]2CCCN2C(=O)[C@H]2CCCN2C(=O)[C@H](Cc2ccccc2)NC(=O)[C@@H](CC(C)C)NC(=O)[C@H]2CCCN2C(=O)[C@@H]2CCCN2C1=O` [Design D8.27, PHE DPRO DPRO *LEU ILE PRO DPRO DLEU] (cyclo(F[dP][dP][NMeL]IP[dP][dL])): the apparent permeability (Papp) in series [1] worked out at 0.282 ×10⁻⁶ cm/s. In series [2], this compound yielded a PAMPA_R1 of 2.88E-07 and a PAMPA_R3 of 2.76E-07.

Take `CC[C@@H](C)[C@H]1NC(=O)[C@H]2CCCN2C(=O)[C@@H]2CCCN2C(=O)[C@@H](CC(C)C)NC(=O)[C@H](C)NC(=O)[C@@H](CC(C)C)N(C)C(=O)[C@@H](C)N(C)C(=O)[C@@H]2CCCN2C(=O)[C@@H]([C@H](C)CC)NC(=O)[C@@H](CC(C)C)N(C)C1=O` [Design D10.39, PRO *DALA *DLEU ALA DLEU PRO DPRO DILE *DLEU DILE] (cyclo(A[dL]P[dP][dI][dNMeL][dI]P[dNMeA][dNMeL])): the Papp in series [1] stood at 1.48 ×10⁻⁶ cm/s. In series [2], this compound returned a PAMPA_R1 of 1.69E-06 and a PAMPA_R3 of 1.47E-06.

The compound `CC(C)C[C@@H]1C(=O)N(C)[C@H](Cc2ccccc2)C(=O)N(C)[C@@H](CC(C)C)C(=O)N[C@H](C(C)C)C(=O)N[C@H](C)C(=O)N2CCC[C@@H]2C(=O)N2CCC[C@H]2C(=O)N[C@H](C)C(=O)N1C` [Design D8.20, PRO DALA *DLEU *DPHE *LEU DVAL DALA DPRO] (cyclo([dA][dNMeL][dNMeF][NMeL][dV][dA][dP]P)) displayed an apparent permeability (Papp) in series [1] of 1.08 ×10⁻⁶ cm/s. In series [2], this compound gave a PAMPA_R1 of 1.00E-06 and a PAMPA_R3 of 1.46E-06.

The compound `CC[C@H](C)[C@@H]1NC(=O)[C@@H](CC(C)C)N(C)C(=O)[C@H](CC(C)C)N(C)C(=O)[C@@H](C)N(C)C(=O)[C@@H](Cc2ccccc2)NC(=O)[C@H](C(C)C)NC(=O)[C@@H](C)NC(=O)[C@@H]2CCCN2C(=O)[C@H]2CCCN2C1=O` [Design D9.10, VAL DPHE *DALA *LEU *DLEU ILE DPRO PRO DALA] (cyclo([dA]V[dF][dNMeA][NMeL][dNMeL]I[dP]P)) returned a Papp in series [1] of 0.826 ×10⁻⁶ cm/s. In series [2], the PAMPA_R1 came to 1.20E-06 and the PAMPA_R3 was 6.09E-07.

The compound `CC(C)C[C@H]1NC(=O)[C@@H]2CCCN2C(=O)[C@@H](C(C)C)NC(=O)[C@@H](C)N(C)C(=O)[C@@H](C(C)C)NC(=O)[C@@H]2CCCN2C(=O)[C@@H](Cc2ccccc2)NC(=O)[C@H](CC(C)C)N(C)C(=O)[C@@H](C(C)C)NC1=O` [Design D9.5, PRO DVAL *DALA DVAL PRO DLEU DVAL *LEU DPHE] (cyclo([NMeL][dF]P[dV][dNMeA][dV]P[dL][dV])) gave an apparent permeability coefficient (Papp) in series [1] of 3.51 ×10⁻⁶ cm/s. In series [2], the PAMPA_R1 was 3.32E-06 and the PAMPA_R3 turned out to be 4.42E-06.

Compound `CC[C@@H](C)[C@H]1NC(=O)[C@H](Cc2ccccc2)NC(=O)[C@@H](C)NC(=O)[C@@H](CC(C)C)N(C)C(=O)[C@@H]2CCCN2C(=O)[C@H](C)NC(=O)[C@H]2CCCN2C(=O)[C@@H]2CCCN2C(=O)[C@@H](Cc2ccccc2)NC1=O` [Design D9.41, PRO DPRO ALA PRO *DLEU DALA PHE DILE DPHE] (cyclo(AP[dNMeL][dA]F[dI][dF]P[dP])) returned an apparent permeability (Papp) in series [1] of 3.48 ×10⁻⁶ cm/s. In series [2], this compound returned a PAMPA_R1 of 3.56E-06 and a PAMPA_R3 of 3.41E-06.

Take `CC[C@H](C)[C@@H]1NC(=O)[C@H]2CCCN2C(=O)[C@@H]2CCCN2C(=O)[C@H](C(C)C)NC(=O)[C@@H](C(C)C)NC(=O)[C@H](Cc2ccccc2)N(C)C(=O)[C@H]2CCCN2C(=O)[C@@H](CC(C)C)N(C)C(=O)[C@@H](CC(C)C)NC1=O` [Design D9.42, DPRO ILE DLEU *DLEU DPRO *PHE DVAL VAL PRO] (cyclo(I[dL][dNMeL][dP][NMeF][dV]VP[dP])): the Papp in series [1] turned out to be 1.12 ×10⁻⁶ cm/s. In series [2], this compound registered a PAMPA_R1 of 1.18E-06 and a PAMPA_R3 of 1.07E-06.

Turning to `CC[C@H](C)[C@@H]1NC(=O)[C@@H](CC(C)C)N(C)C(=O)[C@H](CC(C)C)N(C)C(=O)[C@H](C)NC(=O)[C@H]2CCCN2C(=O)[C@@H]2CCCN2C(=O)[C@@H]2CCCN2C(=O)[C@@H](C(C)C)NC1=O` [Design D8.28, PRO DPRO ALA *LEU *DLEU ILE DVAL PRO] (cyclo(A[NMeL][dNMeL]I[dV]PP[dP])), in series [1], the apparent permeability coefficient (Papp) was determined as 1.14 ×10⁻⁶ cm/s. In series [2], this compound returned a PAMPA_R1 of 1.45E-06 and a PAMPA_R3 of 7.65E-07.

`C[C@H]1NC(=O)[C@@H](Cc2ccccc2)NC(=O)[C@H](Cc2ccccc2)N(C)C(=O)[C@H](Cc2ccccc2)N(C)C(=O)[C@@H](Cc2ccccc2)NC(=O)[C@H]2CCCN2C(=O)CNC(=O)[C@@H](C)NC(=O)[C@@H]2CCCN2C(=O)[C@@H](Cc2ccccc2)NC1=O` [Design D10.62, DALA GLY DPRO DPHE *PHE *PHE DPHE DALA DPHE PRO] (cyclo(G[dP][dF][NMeF][NMeF][dF][dA][dF]P[dA])) gave a Papp in series [1] of 4.23 ×10⁻⁶ cm/s. In series [2], this compound had a PAMPA_R1 of 4.48E-06 and a PAMPA_R3 of 4.48E-06.
